Measured values: patent publication US8815935B2, “Inhibitors of protein prenyltransferases” (The Regents of the University of California, priority 2008, dated 2014)
Where two headings read alike, the source gives them in different places.

Tests used:
GGTase-I = target: T1, GGTase-I (Rattus norvegicus, UniProt P53610+Q04631); test: In vitro GGTase-I enzyme assay (IC50, kinetics); assay type: biochemical
T1 construct: purchased JENA BIOSCIENCE
Procedure: The GGTase-I assay was carried out using RhoA as a substrate protein, GGTase-I (JENA Bioscience) and [3H]geranylgeranyl pyrophosphate. Incubation was for 30 min at 37° C. GGTase-II (or RabGGTase) assay was carried out using YPTI as a substrate protein, GGTase-II (Calbiochem, San Diego, Calif.) plus REP1 (Calbiochem) and [3H]geranylgeranyl pyrophosphate. Incubation was for 30 min at 37° C. FIGS. 20D-20F show the three dimensional structure of GGTase I (D), FTsse (E) and GGTase II (F) which can be obtained from X-ray diffraction studies of protein crystals.
GGTase-I and FTase activities were determined by following the incorporation of radiolabeled isoprenoid [^3H]-geranylgeranyl or [^3H]-farnesyl into substrate proteins. FTase or GGTase-I (50 nM) were used to initiate reactions containing 0.4 μM of [^3H]-FPP or 0.5 μM of [^3H]-GGPP and 2 μM of MBP-tagged substrates (K-Ras4B for FTase; RhoA for GGTase-I) in 20 μl of buffer {50 mM Tris-HCl (pH 7.5), 10 mM MgCl2, […] and 5 mM DTT}. Inhibitors were added at the indicated concentrations. The final DMSO concentration was 2.5% for all samples.
Reactions were carried out for 10 min at 30° C. The reaction mixture was spotted onto a filter paper, treated with 10% trichloroacetic acid (TCA) followed by ethanol and acetone washing. The filter was counted using a scintillation counter. Kinetic assays in which the GGPP concentration was varied employed fixed concentrations of GGTase-I and RhoA, and reactions were carried out for 5 min. Similarly, fixed concentrations of GGTase-I and GGPP were used when the amount of RhoA was varied.

Jurkat cells = test: Jurkat cell growth inhibition; assay type: cell-based, human
Procedure: In Table 4 in cell GI50 values for the growth inhibition of Jurkat cells are reported. The GI50 value is the concentration of a test compound needed to produce 50% growth inhibition in the cell type listed. In Table 4 the isolated yield of each synthetic step for the synthesis of corresponding compounds are also reported.
(§1) Panc-1 cells (Pancreatic cancer cell line) and Jurkat cells (T-cell leukemia) were treated with 12.5 μM of P5-H6 or 12.5 μM of mP5-H6a for 72 hours. The cell number was counted as described in Example 5.
(§2) Cell viability was determined by Cell Counting Kit-8 (CCK-8, Dojindo, Kumamoto, Japan) as described previously (31). Cell viability was calculated relative to the DMSO control. Cell cycle profile was analyzed by flow cytometry as described previously (32).

K562 cells = test: K562 cell growth inhibition; assay type: cell-based, human; conditions: no unit printed there
Procedure: K562 cells are a cell line of human erythroleukemia cells. The K562 cells were treated with P3-E5, P5-H6 or GGTI-298 (a known GGTI compound illustrated in FIG. 27) for 72 hours and then cell number was counted using cell counting kit-8 (Dojindo, Gaithersburg, Md.). Cell viability relative to the DMSO control and the known GGTI compound is plotted in FIG. 23.
as §2

MDA-MB-231 = MDA-MB-231 cell growth inhibition; assay type: cell-based, human; conditions: Tables 8-15, no unit printed there
Procedure: (§3) In FIG. 9-24 in vitro IC50 values for the GGTase I activity are reported. In Tables 7-15 in cell GI50 values for the growth inhibition of a variety of cancer cell lines (e.g., Jurkat, K562, MDA-MB-231, BT474, MCF7, MiaPaCa2, Aspc-1, Panc-1, Capan-2, CFpac-1, and MCF10a) are reported.
as §2

BT474 = BT474 cell growth inhibition; assay type: cell-based, human; conditions: no unit printed there
Procedure: as §3, §2

MiaPaCa2 = MiaPaCa2 cell growth inhibition; assay type: cell-based, human; conditions: no unit printed there
Procedure: as §3, §2

Aspc-1 = Aspc-1 cell growth inhibition; assay type: cell-based, human; conditions: no unit printed there
Procedure: as §3, §2

Panc-1 = Panc-1 cell growth inhibition; assay type: cell-based, human; conditions: no unit printed there
Procedure: as §3, §1, §2

Capan-2 = Capan-2 cell growth inhibition; assay type: cell-based, human; conditions: no unit printed there
Procedure: as §3, §2

CFpac-1 = CFpac-1 cell growth inhibition; assay type: cell-based, human; conditions: no unit printed there
Procedure: as §3, §2

MCF7 = MCF7 cell growth inhibition; assay type: cell-based, human; conditions: Homo sapiens, MCF7, Tables 8-15; no unit printed there
Procedure: as §3, §2

MCF10a = MCF10a cell growth inhibition; assay type: cell-based; conditions: Homo sapiens, MCF-10A, Tables 8-15; no unit printed there
Description: as §3

[1] = Tables 3, 5, 7, read-out: In vitro (enzyme assay) IC50, GGTase I
[2] = Tables 8-15, no unit printed there (Table 7 head: μM unless otherwise specified), read-out: In vitro (GGTase I IC50)
[3] = Homo sapiens, Jurkat, Tables 4, 6, 7, read-out: Jurkat cell GI50
[4] = Homo sapiens, Jurkat, Tables 8-15, no unit printed there, read-out: Jurkat GI50
[5] = Homo sapiens, K562, Tables 8-15
[6] = Homo sapiens, BT-474, Tables 8-15
[7] = Homo sapiens, MIA PaCa-2, Tables 8-15
[8] = Homo sapiens, ASPC1, Tables 8-15
[9] = Homo sapiens, PANC-1, Tables 8-15
[10] = Homo sapiens, Capan-2, Tables 8-15
[11] = Homo sapiens, CFPAC-1, Tables 8-15

Structure (SMILES) | IC50 (GGTase-I; [1]) | IC50 (GGTase-I; [2]) | GI50 (Jurkat cells; [3]) | GI50 (Jurkat cells; [4]) | GI50 (K562 cells; [5]) | GI50 (BT474; [6]) | GI50 (MiaPaCa2; [7]) | GI50 (Aspc-1; [8]) | GI50 (Panc-1; [9]) | GI50 (Capan-2; [10]) | GI50 (CFpac-1; [11]) | other results
CC(C)(C)[C@@H]1C=C(C(=O)N[C@@H](Cc2ccccc2)C(N)=O)[C@H](c2ccc(Br)cc2)N1S(=O)(=O)c1ccccc1Cl [P61-B08] | 16 µM | 6 µM | 4.74 µM | 4.74 µM | 5.21 µM | 9.08 µM | 6.15 µM | 12.2 µM | 9.05 µM | 8.32 µM | 6.16 µM | GI50 (MDA-MB-231; listed as P61B8): 4.43 µM
Cc1ccccc1S(=O)(=O)N1[C@@H](c2ccc(Cl)cc2)C(C(=O)N[C@@H](Cc2ccccc2)C(N)=O)=C[C@H]1C(C)CC(C)(C)C (stereo partly drawn) [P61-C03] | > 10 µM | > 10 µM | 9.76 µM | 9.79 µM | 6.3 µM | 10.8 µM | 7.17 µM | 11.4 µM | 8.85 µM | 10.5 µM | 1.25 µM | GI50 (MCF7): 3.1 µM; GI50 (MCF10a): 9.16 µM
CC(C)(C)[C@@H]1C=C(C(=O)N[C@@H](Cc2ccccc2)C(N)=O)[C@H](c2ccc(Br)cc2)N1S(=O)(=O)c1ccccc1Cl [P61-B09] | > 10 µM | > 10 µM | – | – | – | – | – | – | – | – | – | GI50 (Jurkat cells; Tables 4, 6, 7, read-out: Jurkat cell GI50): 8.75 µM; GI50 (Jurkat cells; Tables 8-15, no unit printed there, listed as P61B9, read-out: Jurkat GI50): 8.75 µM; GI50 (K562 cells; Tables 8-15, listed as P61B9): 9.18 µM; GI50 (MDA-MB-231; listed as P61B9): 11.3 µM; GI50 (BT474; Tables 8-15, listed as P61B9): 9.9 µM; GI50 (MiaPaCa2; Tables 8-15, listed as P61B9): 12.1 µM; GI50 (Aspc-1; Tables 8-15, listed as P61B9): 16.8 µM; GI50 (Panc-1; Tables 8-15, listed as P61B9): 12 µM; GI50 (Capan-2; Tables 8-15, listed as P61B9): 10.7 µM; GI50 (CFpac-1; Tables 8-15, listed as P61B9): 6.3 µM
Cc1ccccc1S(=O)(=O)N1[C@@H](c2ccc(Cl)cc2)C(C(=O)N[C@@H](CC(C)C)C(N)=O)=C[C@H]1C(C)(C)C [drawing 164] | – | – | – | – | – | – | 7.24 µM | 11.4 µM | 6.45 µM | 6.69 µM | < 1.25 µM | –
Cc1ccccc1S(=O)(=O)N1[C@@H](c2ccc(Cl)c(Cl)c2)C(C(=O)N[C@@H](Cc2ccccc2)C(N)=O)=C[C@H]1C(C)(C)C [P61-B10] | 5.4 µM | 5.4 µM | 5.62 µM | 5.62 µM | 6.74 µM | 10.8 µM | 8.06 µM | 12.9 µM | 11.7 µM | 8.45 µM | – | GI50 (MDA-MB-231): 12.6 µM; GI50 (CFpac-1; Tables 8-15): 6.09 µM
